Some results are limits rather than exact numbers.

The values below come from ChEMBL document CHEMBL4811291, “Discovery of macrocyclic HDACs 1, 2, and 3 selective inhibitors for HIV latency reactivation” (Bioorg Med Chem Lett, 2021).

Test [1] deals with T1, Protein deacetylase HDAC6 (Homo sapiens, UniProt Q9UBN7).
T1 sequence (Q9UBN7 whole entry): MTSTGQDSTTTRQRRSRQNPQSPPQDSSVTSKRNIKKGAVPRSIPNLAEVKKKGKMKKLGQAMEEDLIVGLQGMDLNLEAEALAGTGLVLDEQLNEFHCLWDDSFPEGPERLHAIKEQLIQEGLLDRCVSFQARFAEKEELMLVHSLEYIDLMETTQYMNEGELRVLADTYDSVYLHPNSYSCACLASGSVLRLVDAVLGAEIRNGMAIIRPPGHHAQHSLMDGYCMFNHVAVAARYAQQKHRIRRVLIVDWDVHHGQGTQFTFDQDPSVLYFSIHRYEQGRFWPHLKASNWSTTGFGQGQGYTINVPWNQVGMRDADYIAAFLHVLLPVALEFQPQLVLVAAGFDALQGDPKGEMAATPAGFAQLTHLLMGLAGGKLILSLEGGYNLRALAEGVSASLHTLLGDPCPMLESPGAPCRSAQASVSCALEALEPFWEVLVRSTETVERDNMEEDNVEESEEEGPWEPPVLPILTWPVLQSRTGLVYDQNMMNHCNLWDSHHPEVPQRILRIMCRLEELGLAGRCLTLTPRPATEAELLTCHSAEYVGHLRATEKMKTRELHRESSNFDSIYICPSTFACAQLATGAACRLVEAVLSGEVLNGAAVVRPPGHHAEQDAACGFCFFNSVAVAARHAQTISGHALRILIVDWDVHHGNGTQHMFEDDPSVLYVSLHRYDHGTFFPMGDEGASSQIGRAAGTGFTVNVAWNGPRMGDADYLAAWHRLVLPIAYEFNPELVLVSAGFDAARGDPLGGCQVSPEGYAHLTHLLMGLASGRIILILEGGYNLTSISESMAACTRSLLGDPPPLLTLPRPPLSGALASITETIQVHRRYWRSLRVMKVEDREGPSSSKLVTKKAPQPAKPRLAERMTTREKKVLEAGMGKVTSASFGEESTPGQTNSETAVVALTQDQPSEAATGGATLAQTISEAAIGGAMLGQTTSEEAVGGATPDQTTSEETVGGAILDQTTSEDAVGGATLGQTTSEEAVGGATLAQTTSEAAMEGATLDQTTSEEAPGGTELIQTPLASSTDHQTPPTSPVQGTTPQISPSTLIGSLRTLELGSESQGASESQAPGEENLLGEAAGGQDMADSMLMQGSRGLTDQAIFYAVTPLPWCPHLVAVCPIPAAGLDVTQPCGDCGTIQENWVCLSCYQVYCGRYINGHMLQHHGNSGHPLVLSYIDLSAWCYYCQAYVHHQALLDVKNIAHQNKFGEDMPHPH
As to the kind of experiment: Inhibition of HDAC6 (unknown origin).

The test system of test [2] is Human immunodeficiency virus. As to the kind of experiment: Reactivation of HIV latency infected in human 2C4 cells in presence of 0.1 % NHS by luciferase reporter gene assay. The class given is functional, organism-based. A general note: In a reporter assay the amount or activity of a reporter protein is the signal.
In a further test the target is T2, Histone deacetylase 8 (Homo sapiens, UniProt Q9BY41).
T2 sequence (Q9BY41 whole entry): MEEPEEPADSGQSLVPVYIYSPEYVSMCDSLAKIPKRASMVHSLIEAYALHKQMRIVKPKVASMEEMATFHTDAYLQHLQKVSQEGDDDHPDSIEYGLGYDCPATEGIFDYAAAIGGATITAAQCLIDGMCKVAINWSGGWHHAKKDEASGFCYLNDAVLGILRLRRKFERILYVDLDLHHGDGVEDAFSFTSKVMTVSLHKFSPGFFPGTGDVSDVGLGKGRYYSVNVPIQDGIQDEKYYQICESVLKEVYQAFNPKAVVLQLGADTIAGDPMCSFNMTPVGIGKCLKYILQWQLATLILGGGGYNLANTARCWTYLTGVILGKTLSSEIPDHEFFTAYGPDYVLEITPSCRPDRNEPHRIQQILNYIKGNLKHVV
As to the kind of experiment: Inhibition of HDAC8 (unknown origin).

Test [3] has as its system Human immunodeficiency virus. As to the kind of experiment: Reactivation of HIV latency infected in human 2C4 cells in presence of 5 % NHS by luciferase reporter gene assay. Format: functional, organism-based.
The next test has as its target Histone deacetylase 2 (Homo sapiens, UniProt Q92769). Description: Inhibition of HDAC2 (unknown origin).
For a further test, the target named is Histone deacetylase 3 (Homo sapiens, UniProt O15379). Description: Inhibition of HDAC3 (unknown origin).
Another test addresses Histone deacetylase 1 (Homo sapiens, UniProt Q13547). As to the kind of experiment: Inhibition of HDAC1 (unknown origin).
Setting [4] is: Human immunodeficiency virus 1, 2C4.

Histone deacetylase 3, sequence (O15379 whole entry): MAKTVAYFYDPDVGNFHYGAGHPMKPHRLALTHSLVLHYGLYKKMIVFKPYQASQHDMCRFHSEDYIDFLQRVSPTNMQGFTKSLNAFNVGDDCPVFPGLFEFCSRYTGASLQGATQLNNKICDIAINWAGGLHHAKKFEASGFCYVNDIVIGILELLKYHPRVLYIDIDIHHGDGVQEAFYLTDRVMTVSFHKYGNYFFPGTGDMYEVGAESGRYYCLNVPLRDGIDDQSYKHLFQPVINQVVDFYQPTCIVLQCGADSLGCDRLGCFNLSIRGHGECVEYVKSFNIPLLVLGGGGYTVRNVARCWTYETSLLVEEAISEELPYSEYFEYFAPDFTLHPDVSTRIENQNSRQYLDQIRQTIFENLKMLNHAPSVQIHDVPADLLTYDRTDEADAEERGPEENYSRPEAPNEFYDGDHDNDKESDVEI
Histone deacetylase 1, sequence (Q13547 whole entry): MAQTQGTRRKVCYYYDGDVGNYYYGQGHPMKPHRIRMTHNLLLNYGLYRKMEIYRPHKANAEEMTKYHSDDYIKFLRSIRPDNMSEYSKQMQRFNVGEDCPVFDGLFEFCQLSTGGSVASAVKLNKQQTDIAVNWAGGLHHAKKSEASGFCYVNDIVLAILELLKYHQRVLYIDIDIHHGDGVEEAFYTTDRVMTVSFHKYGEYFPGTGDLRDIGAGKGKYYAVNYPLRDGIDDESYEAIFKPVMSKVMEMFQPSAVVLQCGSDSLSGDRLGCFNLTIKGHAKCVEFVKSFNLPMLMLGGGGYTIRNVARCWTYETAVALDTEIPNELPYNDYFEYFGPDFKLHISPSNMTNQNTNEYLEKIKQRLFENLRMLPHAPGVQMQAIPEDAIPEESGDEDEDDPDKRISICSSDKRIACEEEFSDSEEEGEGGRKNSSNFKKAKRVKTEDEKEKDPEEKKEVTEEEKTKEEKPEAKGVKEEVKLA
Histone deacetylase 2, sequence (Q92769 whole entry): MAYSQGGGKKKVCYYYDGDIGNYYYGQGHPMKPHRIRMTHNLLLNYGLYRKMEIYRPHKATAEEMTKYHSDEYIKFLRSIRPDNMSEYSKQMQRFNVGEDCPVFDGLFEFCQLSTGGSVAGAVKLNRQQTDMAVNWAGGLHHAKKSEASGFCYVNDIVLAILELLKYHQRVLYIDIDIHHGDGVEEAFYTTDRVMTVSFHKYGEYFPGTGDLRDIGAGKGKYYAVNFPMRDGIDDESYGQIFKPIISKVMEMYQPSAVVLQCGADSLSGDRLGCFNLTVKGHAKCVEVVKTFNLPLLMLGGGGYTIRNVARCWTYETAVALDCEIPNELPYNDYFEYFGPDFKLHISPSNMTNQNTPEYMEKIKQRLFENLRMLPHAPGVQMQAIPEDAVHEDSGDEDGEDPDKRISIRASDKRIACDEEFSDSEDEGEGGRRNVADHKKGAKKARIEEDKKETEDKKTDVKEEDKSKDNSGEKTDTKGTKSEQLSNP

`CCC(=O)CCCCC[C@@H]1NC(=O)[C@H]2CC23CCN(CCCOCCn2ccc4cc(ccc4c2=O)-c2cnc1[nH]2)CC3`: the IC50 (in test [1]; on Histone deacetylase 8) was > 900 nM in each case. Moreover, the EC50 in test [2] (setting [4]) and in test [3] (setting [4]) was > 40000 nM each time.
Consider `CCC(=O)CCCCC[C@H](NC(=O)C1CN(C)C1)c1[nH]c(-c2ccccc2)nc1C(N)=O`, for which the half-maximal effective concentration (EC50) – broadly, the concentration at which the effect is half-maximal – in test [2] (setting [4]) was determined as 294 nM; in test [3] (setting [4]), 269 nM.
As to `CCC(=O)CCCCC[C@H](NC(=O)C1CN(C)C1)c1ncc(-c2ccccc2)[nH]1`, the IC50 (commonly the concentration that gives 50% inhibition) in test [1] amounted to 5750 nM; on Histone deacetylase 2 it was 249 nM; on Histone deacetylase 3, 12 nM; against Histone deacetylase 1, 37 nM; against Histone deacetylase 8 it was 15000 nM. The values for the EC50 in test [2] (setting [4]) and in test [3] (setting [4]) were 2470 nM and 2360 nM, respectively.
Turning to `CCC(=O)CCCCC[C@H](NC(=O)[C@H]1CC12CCN(CC)CC2)c1[nH]c2nc1C(=O)NCCC/C=C/c1cccc-2c1`, the figures for the concentration giving a half-maximal response (EC50) in test [2] (setting [4]) and in test [3] (setting [4]) were 5240 nM and 19300 nM, respectively.
Consider `CCC(=O)CCCCC[C@@H]1NC(=O)C2CCN2CCCCCCc2ccccc2-c2cnc1[nH]2` (stereo in doubt; 8), for which the IC50 turned out to be 17500 nM in test [1], 1140 nM against Histone deacetylase 2, 188 nM against Histone deacetylase 3 and 355 nM against Histone deacetylase 1.
Turning to `CCC(=O)CCCCC[C@@H]1NC(=O)[C@H]2CC23CCN(CCCOCCCn2ccc4cc(ccc4c2=O)-c2cnc1[nH]2)CC3`, the IC50 in test [1] is > 900 nM. Further, the EC50 in test [2] (setting [4]) turned out to be 1790 nM; in test [3] (setting [4]) it was 1980 nM.
As for `CCC(=O)CCCCC[C@H](NC(=O)[C@H]1CC12CCN(C)CC2)c1ncc(-c2ccc3c(c2)C2CCC3C2)[nH]1` (some centres undefined), 3.7 nM corresponded to half-maximal inhibition at Histone deacetylase 2 (IC50). Besides, the EC50 in test [2] (setting [4]) is 351 nM; in test [3] (setting [4]), 376 nM.
Regarding `CCC(=O)CCCCC[C@H](NC(=O)[C@H]1CC12CCN(CC)CC2)c1[nH]c2nc1C(=O)NCCCCCc1cccc-2c1`, the IC50 (in test [1]; against Histone deacetylase 2; on Histone deacetylase 8) was > 900 nM each time. For the same molecule, the EC50 was > 40000 nM in test [2] (setting [4]) and 12000 nM in test [3] (setting [4]).
Turning to `CCC(=O)CCCCC[C@@H]1NC(=O)[C@H]2CCCCN2C(=O)[C@H]([C@@H](C)CC)NC(=O)[C@H](Cc2cn(OC)c3ccccc23)NC1=O`, the concentration giving a half-maximal response (EC50) in test [2] (2c4) stood at 125 nM; in test [3] (2c4), 587 nM.
For `CCC(=O)CCCCC[C@@H]1NC(=O)[C@H]2CC23CCN(CCCCCn2c(=O)ccc4cc(ccc42)-c2cnc1o2)CC3`, the IC50 is 858 nM in test [1]; 260 nM against Histone deacetylase 2; 56 nM against Histone deacetylase 3; 16 nM against Histone deacetylase 1; > 900 nM on Histone deacetylase 8. Moreover, the EC50 stood at 5150 nM in test [2] (setting [4]) and 4730 nM in test [3] (setting [4]).
`CCC(=O)CCCCC[C@@H]1NC(=O)[C@H]2CC23CCN(CCCCN2C4CCC2c2cc(ccc24)-c2cnc1[nH]2)CC3` (some centres undefined): the IC50 was > 900 nM in test [1], 49 nM at Histone deacetylase 2 and > 900 nM on Histone deacetylase 8. The EC50 stood at 844 nM in test [2] (setting [4]) and 867 nM in test [3] (setting [4]).
Take `CCC(=O)CCCCC[C@H](NC(=O)[C@H]1CC12CCN(CC)CC2)c1[nH]c(-c2ccc(F)cc2)nc1C(N)=O`: the EC50 in test [2] (setting [4]) stood at 193 nM; in test [3] (setting [4]), 165 nM.
Take `CCC(=O)CCCCC[C@@H]1NC(=O)C2CCN2CCCCCCOc2ccccc2-c2cnc1[nH]2` (stereo in doubt; 5): the 50% inhibitory concentration (IC50) against Histone deacetylase 2 was 2830 nM; at Histone deacetylase 3, 242 nM; against Histone deacetylase 1, 682 nM.
As to `CCC(=O)CCCCC[C@@H]1NC(=O)C2CCN2CCCCCCc2ccccc2-c2cnc1[nH]2` (stereo in doubt; 7), the IC50 in test [1] was found to be 9830 nM; against Histone deacetylase 2, 5950 nM; at Histone deacetylase 3, 1220 nM; against Histone deacetylase 1 it was 2940 nM.
Regarding `CCC(=O)CCCCC[C@H](NC(=O)[C@H]1CC12CCN(C)CC2)c1ncc(-c2ccc3c(=O)n(C)ccc3c2)[nH]1`, the EC50 in test [3] (setting [4]) amounted to 130 nM.
For `CCC(=O)CCCCC[C@@H]1NC(=O)[C@H]2CC23CCN(CCCCN2C4CCC2c2c(cccc24)-c2cnc1[nH]2)CC3` (some centres undefined), the IC50 in test [1] is > 900 nM; on Histone deacetylase 2 it was 24 nM; on Histone deacetylase 8 it was > 900 nM. Besides, the EC50 in test [2] (setting [4]) is 6270 nM; in test [3] (setting [4]), 9060 nM.
For the molecule `CCC(=O)CCCCC[C@@H]1NC(=O)[C@H]2CC23CCN(C/C=C/CN2C4CCC2c2cc(ccc24)-c2cnc1[nH]2)CC3` (some centres undefined), the IC50 in test [1] was > 900 nM; on Histone deacetylase 2, 0.86 nM; against Histone deacetylase 8 it was > 900 nM. Further, the EC50 came to 73 nM in test [2] (setting [4]) and 76 nM in test [3] (setting [4]).
On to `CCC(=O)CCCCC[C@@H]1NC(=O)CN(C)CCCCOCCCCn2ccc3cc(ccc3c2=O)-c2cnc1[nH]2`, for which the IC50 (in test [1]; against Histone deacetylase 8) was > 900 nM each time. The EC50 in test [2] (setting [4]) stood at 2500 nM; in test [3] (setting [4]), 3510 nM.
In the case of `CCC(=O)CCCCC[C@@H]1NC(=O)[C@H]2CC23CCN(CCCCCOc2ccc4cc(ccc4n2)-c2cnc1o2)CC3`, the IC50 (in test [1]; against Histone deacetylase 8) was > 900 nM each time. The EC50 in test [2] (setting [4]) and in test [3] (setting [4]) was > 40000 nM in each case.
Regarding `CCC(=O)CCCCC[C@@H]1NC(=O)C2CCN2CCCCCCOc2ccccc2-c2cnc1[nH]2` (stereo in doubt; 6), the IC50 in test [1] came out at 5550 nM; at Histone deacetylase 2, 668 nM; at Histone deacetylase 3, 105 nM; against Histone deacetylase 1, 218 nM; at Histone deacetylase 8 it was 8420 nM. The values for the EC50 in test [2] (setting [4]) and in test [3] (setting [4]) were 1570 nM and 3020 nM, respectively.
Take `CCC(=O)CCCCC[C@H](NC(=O)[C@H]1CC12CCN(CC)CC2)c1[nH]c2nc1C(=O)NCCC/C=C\c1cccc-2c1`: the IC50 in test [1] is > 900 nM; against Histone deacetylase 8 it was 90 nM. Besides, the figures for the EC50 in test [2] (setting [4]) and in test [3] (setting [4]) were 1460 nM and 2880 nM, respectively.
Consider `CCC(=O)CCCCC[C@H](NC(=O)[C@H]1CC12CCN(CC)CC2)c1ncc(-c2ccc3c(=O)n(CC)ccc3c2)[nH]1`, for which the IC50 against Histone deacetylase 2, at Histone deacetylase 3 and against Histone deacetylase 1 was < 1.5 nM in each case. In addition, the results for the EC50 in test [2] (setting [4]) and in test [3] (setting [4]) were 52 nM and 56 nM, respectively.
Take `CCC(=O)CCCCC[C@H](NC(=O)C1CN(C)C1)c1ncc(-c2cc3ccccc3nc2OC)[nH]1`: the IC50 in test [1] was determined as 680 nM.
`CCC(=O)CCCCC[C@@H]1NC(=O)C2CCN2CCCCCOc2ccccc2-c2cnc1[nH]2` (stereo in doubt; 4): the IC50 stood at 5390 nM in test [1]; 911 nM at Histone deacetylase 2; 91 nM at Histone deacetylase 3; 216 nM on Histone deacetylase 1; 21500 nM on Histone deacetylase 8. Moreover, the EC50 in test [2] (setting [4]) turned out to be 3170 nM; in test [3] (setting [4]), 5090 nM.
For the molecule `CCC(=O)CCCCC[C@@H]1NC(=O)C2CCN2CCCCCOc2ccccc2-c2cnc1[nH]2` (stereo in doubt; 3), the IC50 against Histone deacetylase 2 is 8620 nM; on Histone deacetylase 3 it was 791 nM; at Histone deacetylase 1, 2560 nM.
